The values that follow come from patent US5053431A, “Derivatives of chrysophanol as topoisomerase II inhibitors” (Sloan-Kettering Institute For Cancer Research, priority 1990, dated 1991).

≈ marks a conversion by molar mass, not a printed value. Where two headings read alike, the source gives them in different places.

The test system of series [1] is cancer. Particulars: literature; cited from earlier work.
Series [2] has as its system DNA. Particulars: literature; cited from earlier work.
Series [3] in a line: Solubility in aqueous solutions. The series is classed as physicochemical.
In series [4] the test system is human leukemia HL-60 cells. Kind of series: HL-60 cell growth inhibition (72 h). The series is classed as cell-based. Particulars: HL-60, 72 h, read-out: ID50, M [HL-60 cell growth (72 h)] (A). As to the method:
For cell growth inhibition studies, HL-60 cells […]) were grown in RPMI 1640 media at 37° C. in humidified 5% CO2 for 72 h. Viable cells were counted with the trypan blue exclusion method. The fractional inhibitions at four or five concentrations of compounds (in 0.2% DMSO) were analyzed with a median-effect plot (Chou, T.-C., et al., Adv. Enzyme Regul. 22:27 (1984)) by using a computer program. (Chou, J.; Chou, T.-C. Dose-Effect Analyses with Microcomputer. Quantitation of ID50, LD50, Synergism, Antagonism, Low-dose Risk, Receptor-Binding and Enzyme Kinetics; IBM-PC Series, Elsevier-Biosoft, Elsevier Scientific: Cambridge, U.K., (1986)). The median-effect concentration (ID50) was automatically determined for the x intercept of the median-effect plot. Cell growth in the absence of a compound and in the presence of DMSO was used as a control. DMSO (0.2%) alone inhibited cell growth 3.8±1.2% during the 72-h incubation period.

The nature of series [5]: Stability of compound. The series is classed as physicochemical.
In series [6] the test system is [^3 H]TdR incorporation into DNA in HL-60 cells. Kind of series: Inhibition of [3H]TdR incorporation into DNA in HL-60 cells (initial 30 min). Format: cell-based, human. Particulars: for IC50: HL-60, initial 30 min exposure, read-out: ID50, M (HL-60 TdR into DNA (B)); for B/A: ratio of ID50 for TdR incorporation (B) to ID50 for cell growth (A), HL-60. The procedure: For precursor incorporation studies, each compound at four to six concentrations (0.2% DMSO) was preincubated with HL-60 cells (2.5×10^6 /Ml) for 15 min prior to the addition of [^3 H-methyl]TdR (1 μCi, 0.15 nmol/mL) and was incubated for 30 min. […] The incorporation of radioactivity in DNA in the absence of an analogue in the presence of DMSO was used as a control.

Series [7] deals with mouse leukemia L1210 cells. Kind of series: Inhibition of L1210 cell growth. Format: cell-based. The procedure:
Preliminary biological data for inhibiting cell growth of murine L1210 leukemic cells and human acute promyelocytic leukemia cells (HL-60) during 72 h of exposure to the compounds are given in Table IV. The potencies for inhibiting [^3 H]TdR incorporation into DNA in HL-60 cells during the initial 30-min period are also given in Table IV. It is interesting to note that 1,8-di-O-methyl derivatives are uniformly devoid of activity against L1210 leukemic cells. […] The B/A ratios allow an indirect estimation of whether or not cytotoxicities exerted by these analogues are primarily due to initial inhibition of DNA synthesis. […] Whether these analogues, like m-AMSA, ellipticine, or anthracyclines, act by inhibiting DNA topoisomerase II remains to be explored. […] Our preliminary experiments indicate that the compounds arrest cells in the S and/or G2 phases of the cell cycle (unpublished results).

The test system of series [8] is Topo II. Kind of series: Heat reversal of protein-linked DNA complex. Particulars: 65 degrees C. Format: biochemical, human (HL-60). As to the method: (§1) This experiment concerns Topoisomerase II (Topo II)-mediated DNA cleavage activity induced by chrysophanol derivatives. 3-(bis[2-chloroethyl]amino)methyl-1,8-dihydroxy-9,10-anthraquinone (SK-31662) and 3-(2-hydroxyethylamino)methyl-1,8-dihydroxy-9,10-anthraquinone (SK-31694) have antileukemic activity with IC>es of 0.14 and 0.86 uM, respectively. SK-31662 and SK-31694 inhibit kDNA decatenation at 48 and 38 uM, respectively.

In series [9] the test system is DNA topoisomerase II. Particulars: literature; cited from earlier work.
The subject of series [10] is Topo II. Kind of series: Topo II cleavable complex formation. Particulars: 3'-labeled DNA and NE of HL-60. The series is classed as biochemical, human (HL-60). As to the method:
as §1

The test system of series [11] is leukemic cells. Kind of series: Antileukemic activity (Experiment 3). Particulars: read-out: antileukemic activity IC>es. Format: cell-based.
The subject of series [12] is Topo II. Kind of series: Inhibition of kDNA decatenation. The series is classed as biochemical.
Series [13] relates to leukemia L1210/Cisplatin. Kind of series: Activity against Cisplatin-resistant leukemia L1210 in mice. Format: in vivo, mouse. As to the method: At the dosage of 100 mg/kg/day×5 (ip), mice inoculated with Cisplatin resistant leukemia L1210/Cisplatin are cured.
The subject of series [14] is Topo II. Kind of series: Mapping of DNA-Topo II cleavage sites (Hind III-digested 3'-labeled DNA, HL-60 nuclear extracts). The series is classed as biochemical, human (HL-60). Particulars: 10 uM. As to the method: as §1
Series [15] has as its system DNA (native and thermally denatured). Kind of series: Spectrophotometric study of DNA interaction. The series is classed as binding, calf thymus. Particulars: for reversal of DNA induced changes in absorption spectra by Me2SO: Me2 SO to 1:1 v/v. As to the method:
Some representative compounds were studied for their ability to interact with nucleic acids in solution by comparison of the electronic spectrum of drug alone with that of the drug in the presence of an excess of nucleic acid. All drugs studied have an absorption band in the visible region, separate from the absorption band of the nucleic acids, and therefore any changes in band intensity and position were indicative of drug chromophore-DNA interaction.
Absorption spectra were measured with an IBM 9410 UV-visible spectrometer interfaced to an HP 9826 computer. Small volumes of the stock drug solutions (2 mg/mL in Me2 SO) were added to 2 mL of buffer (0.01 or 0.1 M NaCl, 5 mM Hepes, pH 7) to obtain a final drug concentration of 5-15 μM, or to the solution of native or thermally denatured DNA (0.2 and 0.1 mM, respectively) in the buffer. After incubation at room temperature for 10 min, the spectra were recorded in the 300-600 nm range (increment 1 nm) and corrected by subtracting the spectrum of the blank which was measured before addition of the drug.

Setting [16] is: Mus musculus, L1210, 72 h, read-out: ID50, M (L1210 cell growth).
[17] abbreviates: Mus musculus, L1210, Table I, read-out: ID50 (the source's name).
[18] abbreviates: Mus musculus, L1210, Table I, read-out: ID50 (μg/mL).

On to `Cc1c2ccncc2c(C)c2c1[nH]c1ccc(O)cc12` [9-hydroxyellipticine], for which the anticancer activity result in [1] is reported as “potent anticancer agent”.
Consider `COc1c(O)c2c(c3cc(C(=O)N4CCc5c4c(O)c(OC)c4[nH]c(C(=O)N6CC7CC78C6=CC(=O)c6[nH]cc(C)c68)cc54)[nH]c13)CCN2C(N)=O` (centres unmarked) [CC1065], for which the “DNA binding / alkylation” value in series [2] is “binds to the minor groove of DNA by nonintercalative means and then slowly alkylates the amino group of adenine”.
With `Cc1cc(O)c2c(c1)C(=O)c1cccc(O)c1C2=O` [IIa, chrysophanol], the “solubility in aqueous solutions” value in series [3] is “low solubility in aqueous solutions”.
The same measure, in the same setting: in the case of `Cc1cc(O)c2c(c1)C(=O)c1cc(O)cc(O)c1C2=O` [IIb, emodin] it was “low solubility in aqueous solutions”.
Turning to `COc1cccc2c1C(=O)c1c(OC)cc(CNCCCl)cc1C2=O` [IXa-7, 3-[N-(2-chloroethyl)amino]methyl-1,8-dimethoxy-9,10-anthraquinone], the IC50 in series [4] (Homo sapiens) is 86 µM; in series [6] (Homo sapiens, 0.5 h), 19 µM; in series [7] (setting [16]) it was 26 µM. The stability result in series [5] is “unstable”. Also, the B/A in [6] was found to be 0.22.
Regarding `COc1cc([C@@H]2c3cc4c(cc3[C@@H](O[C@@H]3O[C@@H]5CO[C@@H](C)O[C@H]5[C@H](O)[C@H]3O)[C@H]3COC(=O)[C@H]23)OCO4)cc(OC)c1O` [VP-16, etoposide, reference compound], the “reversal of protein-linked DNA by heat” value in series [8] is “reduced during 0.5 min exposure to 65 °C”. For the same compound, the “stabilization of cleavable complex between DNA topoisomerase II and DNA” value (“stabilization” for short) in series [9] was “stabilize the cleavable complex between DNA topoisomerase II and DNA”.
Consider `O=C1c2cccc(O)c2C(=O)c2c(O)cc(CN(CCCl)CCCl)cc21` [XIa-3, 3-(bis[2-chloroethyl]amino)methyl-1,8-dihydroxy-9,10-anthraquinone], for which the “formation of Topo II cleavable complex” value in series [10] is “stimulate the formation of Topo II cleavable complex”. The “reversal of protein-linked DNA by heat” value in [8] is “cannot be reversed up to 15 min”. The IC50 in series [11] was found to be 0.14 µM; in series [4] (0.2% DMSO), 0.18 µM; in series [6], 69 µM; in series [7] (Table I, read-out: ID50 (the source's name)) it was 0.13 µM. Further, the B/A in [6] was 383. Also, the “concentration that inhibits kDNA decatenation” value in [12] was 48 µM. In addition, in series [13] (100 mg/kg/day×5 (ip)), the “cure of mice inoculated with Cisplatin resistant leukemia L1210/Cisplatin” value is “cured”. Moreover, the “potency against mouse leukemia L1210 made resistant to Cisplatin” value in series [13] (mouse, in vivo) is “extremely potent”. Further, the “ID50” value in [7] (Table I) was found to be 0.058 µg/mL (≈ 0.147 µM). The “protein-linked DNA breaks, cleavage site pattern” value in series [14] is “induce protein-linked DNA breaks with a cleavage site pattern similar to m-AMSA”.
For the compound `O=C1c2cccc(O)c2C(=O)c2c(O)cc(CNCCO)cc21` [XIa-6, 3-(2-hydroxyethylamino)methyl-1,8-dihydroxy-9,10-anthraquinone], the “formation of Topo II cleavable complex” value in [10] is reported as “stimulate the formation of Topo II cleavable complex”. For the same compound, the “reversal of protein-linked DNA by heat” value in series [8] is “reduced during 0.5 min exposure to 65 °C”. The IC50 in series [11] came out at 0.86 µM; in [4] (Homo sapiens, 0.2% DMSO) it was 0.86 µM; in series [6] (Homo sapiens, 0.5 h) it was 15 µM; in series [7] (setting [17]) it was 0.16 µM; in [7] (setting [18]) it was 0.066 µg/mL. Further, in series [6], the B/A stood at 17.4. In addition, the “concentration that inhibits kDNA decatenation” value in series [12] was determined as 38 µM. For the same compound, the “protein-linked DNA breaks, cleavage site pattern” value in series [14] is “induce protein-linked DNA breaks with a cleavage site pattern similar to m-AMSA”.
Regarding `O=C1c2cccc(O)c2C(=O)c2c(O)cc(CNCCCl)cc21` [XIa-7, 3-[N-(2-chloroethyl)amino]methyl-1,8-dihydroxy-9,10-anthraquinone], the IC50 in [4] (Homo sapiens) is 7.5 µM; in [6] (Homo sapiens, 0.5 h), 39 µM; in series [7] (Mus musculus, L1210, read-out: ID50 (μM)), 7.11 µM; in [7] (Mus musculus, L1210, read-out: ID50 (μg/mL)) it was 2.37 µg/mL. Moreover, the stability entry in series [5] was “unstable”. Further, the “reversal of DNA induced changes in absorption spectra by Me2SO” value in series [15] is given as “could be reversed by addition of Me2 SO”. In addition, in series [6], the B/A is reported as 5.2.
`COc1cc(O)c2c(c1)C(=O)c1cc(CNCCO)cc(O)c1C2=O` [XIb-6, 3-[N-(2-hydroxyethyl)amino]methyl-1,8-dihydroxy-6-methoxy-9,10-anthraquinone]: the IC50 in series [4] (Homo sapiens, 0.2% DMSO) is 1.6 µM; in [6] (Homo sapiens, 0.5 h), 12 µM; in series [7] (setting [17]) it was 0.19 µM; in [7] (setting [18]), 0.072 µg/mL; in [7] (Mus musculus, Table IV, L1210, 72 h exposure, read-out: ID50, M (L1210 cell growth)) it was 0.5 µM. Moreover, the “interaction with DNA” value in series [15] (absorption spectra, native and thermally denatured DNA) was “interact with both native and thermally denatured DNA but more strongly with native DNA”. Moreover, the B/A in series [6] is 7.5.
Turning to `COc1cc(O)c2c(c1)C(=O)c1cc(CNCCCl)cc(O)c1C2=O` [XIb-7, 3-[N-(2-chloroethyl)amino]methyl-1,8-dihydroxy-6-methoxy-9,10-anthraquinone], the IC50 worked out at 9.2 µM in series [4] (Homo sapiens); 220 µM in series [6] (Homo sapiens, 0.5 h); 18 µM in [7] (setting [16]). The “reversal of DNA induced changes in absorption spectra by Me2SO” value in series [15] is listed as “could be reversed by addition of Me2 SO”. For the same compound, the “interaction with DNA on increase of salt concentration” value in series [15] (Na concentration increased from 0.01 to 0.1 M) was “lost the ability to interact with DNA”. In series [6], the B/A stood at 23.9.
In the case of `COc1cccc2c1C(=O)c1c(O)c3c(c(O)c1C2=O)C[C@@](O)(C(=O)CO)C[C@@H]3O[C@H]1C[C@H](N)[C@H](O)[C@H](C)O1` [adriamycin], in series [9], the “stabilization” value is “stabilize the cleavable complex between DNA topoisomerase II and DNA”.
Turning to `Cc1c2ccncc2c(C)c2c1[nH]c1ccccc12` [ellipticine], the “stabilization” value in series [9] was “stabilize the cleavable complex between DNA topoisomerase II and DNA”.
As for `COc1cc(NS(C)(=O)=O)ccc1Nc1c2ccccc2nc2ccccc12` [m-AMSA, 4'-(9-acridinylamino) methanesulfon-m-aniside], in series [9], the “effect on DNA topoisomerase II reactions” value is “inhibits the topoisomerization and catenation reactions of DNA topoisomerase II”.
